In BindingDB's records for doi:10.7270/Q2D798VP (Broad Institute, 2009) one finds EC50 data, which are given here for 38 compounds.

SMILES strings stand for the structures. Bounds are passed on as bounds.

In this experiment the target is T1, Zinc finger protein mex-5 (Caenorhabditis elegans, UniProt Q9XUB2).
T1 sequence (Q9XUB2 whole entry): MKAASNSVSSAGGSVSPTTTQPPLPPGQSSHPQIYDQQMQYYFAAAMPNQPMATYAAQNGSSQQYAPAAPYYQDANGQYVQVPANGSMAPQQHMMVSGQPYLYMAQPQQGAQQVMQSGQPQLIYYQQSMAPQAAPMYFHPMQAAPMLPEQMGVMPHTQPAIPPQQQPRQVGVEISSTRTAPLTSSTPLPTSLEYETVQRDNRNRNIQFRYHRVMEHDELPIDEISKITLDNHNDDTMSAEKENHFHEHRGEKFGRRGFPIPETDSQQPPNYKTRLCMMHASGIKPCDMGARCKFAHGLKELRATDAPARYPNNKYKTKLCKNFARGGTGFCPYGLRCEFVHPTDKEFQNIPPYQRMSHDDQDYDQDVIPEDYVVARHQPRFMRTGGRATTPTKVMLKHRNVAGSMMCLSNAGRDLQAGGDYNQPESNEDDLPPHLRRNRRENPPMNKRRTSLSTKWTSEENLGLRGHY
As to the kind of experiment: potency of MEX-5 RNA-binding blockers – biochemical, C. elegans, fluorescence polarization, dose response (AID 1960). (In general: In fluorescence polarisation assays a small probe gives low polarisation when free and higher when bound to something large.)
The compound `Cc1ccc(C(=O)C2C(=O)C(=O)N(Cc3ccco3)C2c2cccc(Br)c2)o1` (stereo not drawn) [2-(3-bromophenyl)-1-(2-furanylmethyl)-4-hydroxy-3-[(5-methyl-2-furanyl)-oxomethyl]-2H-pyrrol-5-one] displayed an EC50 of 35.6 µM.
`CCCCOc1cccc(C2C(C(=O)c3ccc(C)o3)C(=O)C(=O)N2c2nnc(C)s2)c1` (stereo not drawn) [2-(3-butoxyphenyl)-3-(5-methylfuran-2-yl)carbonyl-1-(5-methyl-1,3,4-thiadiazol-2-yl)-4-oxidanyl-2H-pyrrol-5-one] yielded an EC50 of 77.4 µM.
The value for `CSc1nnc(N2C(=O)C(=O)C(C(=O)c3ccco3)C2c2cccc(Cl)c2)s1` (stereo not drawn) [2-(3-chlorophenyl)-3-(furan-2-carbonyl)-4-hydroxy-1-(5-methylsulfanyl-1,3,4-thiadiazol-2-yl)-2H-pyrrol-5-one] was 14.3 µM; that for `CCOc1cccc(C2C(C(=O)c3ccc(C)o3)C(=O)C(=O)N2c2nccs2)c1` (stereo not drawn) [2-(3-ethoxyphenyl)-3-(5-methylfuran-2-yl)carbonyl-4-oxidanyl-1-(1,3-thiazol-2-yl)-2H-pyrrol-5-one] was 1.27 µM.
In turn, `Cc1cccc(Nc2nc(O)cs2)c1` [2-(3-methylanilino)-1,3-thiazol-4-one] displayed a concentration giving a half-maximal response (EC50) of over 300 µM.
The value for `COCCNC(=O)Cn1cc(C=C2C(=O)NC(=O)N(c3ccccc3F)C2=O)c2ccccc21` [2-(3-{(E)-[1-(2-fluorophenyl)-2,4,6-trioxotetrahydropyrimidin-5(2H)-ylidene]methyl}-1H-indol-1-yl)-N-(2-methoxyethyl)acetamide] was 8.13 µM; that for `Cc1nnc(N2C(=O)C(=O)C(C(=O)c3ccco3)C2c2ccc(F)cc2)s1` (stereo not drawn) [2-(4-fluorophenyl)-3-(furan-2-carbonyl)-4-hydroxy-1-(5-methyl-1,3,4-thiadiazol-2-yl)-2H-pyrrol-5-one] was 32.9 µM.
The value for `CSc1nnc(N2C(=O)C(=O)C(C(=O)c3ccco3)C2c2ccc(F)cc2)s1` (stereo not drawn) [2-(4-fluorophenyl)-3-(furan-2-carbonyl)-4-hydroxy-1-(5-methylsulfanyl-1,3,4-thiadiazol-2-yl)-2H-pyrrol-5-one] was 82.8 µM; that for `Cc1[nH]c2ccccc2c1/C=C1\N=C(c2ccc(F)cc2)OC1=O` [2-(4-fluorophenyl)-4-[(2-methyl-1H-indol-3-yl)methylene]-1,3-oxazol-5(4H)-one] was 5.53 µM.
For `O=C1c2cccc([N+](=O)[O-])c2C(=O)N1n1c(O)csc1=S` [2-(4-keto-2-thioxo-thiazolidin-3-yl)-4-nitro-isoindoline-1,3-quinone], the EC50 came to 24.8 µM.
`Cc1nnc(N2C(=O)C(=O)C(C(=O)c3ccco3)C2c2ccc(C(C)(C)C)cc2)s1` (stereo not drawn) [2-(4-tert-butylphenyl)-3-(furan-2-carbonyl)-4-hydroxy-1-(5-methyl-1,3,4-thiadiazol-2-yl)-2H-pyrrol-5-one] had a half-maximal effective concentration (EC50) of 7.86 µM.
With `CCC(=CC=C[C@@H]1C=C[C@@H]2CCC[C@H]2[C@@H]1C(=O)c1ccc[nH]1)[C@@H]1O[C@@H]([C@@H](C)C(=O)O)CC[C@@H]1C` [2-(6-{1-ethyl-4-[4-(1H-pyrrol-2-ylcarbonyl)-2,3,3a,4,5,7a-hexahydro-1H-inden-5-yl]-1,3-butadienyl}-5-methyltetrahydro-2H-pyran-2-yl)propanoate], the 50% effective concentration (EC50) was 1.16 µM.
In turn, `COc1ccc(C2C3=C(CCCC3=O)OC(=N)C2C#N)c(OC)c1OC` (stereo not drawn) [2-Amino-5-oxo-4-(2,3,4-trimethoxy-phenyl)-5,6,7,8-tetrahydro-4H-chromene-3-carbonitrile] returned an EC50 of over 300 µM.
Then `N#CC1C(=N)Oc2cc(O)c(Cl)cc2C1c1ccccc1F` (stereo not drawn) [2-Amino-6-chloro-4-(2-fluoro-phenyl)-7-hydroxy-4H-chromene-3-carbonitrile], with over 300 µM.
Take `O=CC(C=Nc1ccccn1)c1nc2ccccc2o1` (stereo not drawn) [2-Benzooxazol-2-yl-3-(pyridin-2-ylamino)-propenal]: the 50% effective concentration (EC50) was over 300 µM.
The value for `CN1C(=O)/C(=C/c2ccc(-c3ccccc3[N+](=O)[O-])o2)S/C1=N/c1ccc(Cl)c(C(=O)O)c1` [2-Chloro-5-[3-methyl-5-[1-[5-(2-nitro-phenyl)-furan-2-yl]-meth-(Z)-ylidene]-4-oxo-thiazolidin-(2Z)-ylideneamino]-benzoic acid] was 22.6 µM; that for `O=C(CC(=O)c1ccccc1)C(=O)NNC(=O)c1ccccc1[N+](=O)[O-]` [2-Nitro-benzoic acid N'-(2-hydroxy-4-oxo-4-phenyl-but-2-enoyl)-hydrazide] was 1.11 µM.
Compound `CC(N=Nc1ccc([N+](=O)[O-])cc1[N+](=O)[O-])c1cc2c(ccc3ccccc32)oc1=O` (stereo not drawn) [2-[1-[(2,4-dinitrophenyl)hydrazinylidene]ethyl]-3-benzo[f][1]benzopyranone] registered an EC50 of over 300 µM.
The value for `Oc1csc(N=NCc2cccs2)n1` [2-[2-(thiophen-2-ylmethylidene)hydrazinyl]-1,3-thiazol-4-one] was over 300 µM; that for `CCOc1cc(C=C2SC(Nc3ccc(CC)cc3)=NC2=O)ccc1OCC(=O)O` [2-[2-ethoxy-4-[(Z)-[2-(4-ethylanilino)-4-oxo-1,3-thiazol-5-ylidene]methyl]phenoxy]acetic acid] was 149 µM; that for `C=CCn1c(=O)c(=Cc2ccsc2)s/c1=C(\C#N)C(=O)NCCN1CCOCC1` [2-[3-allyl-4-keto-5-(3-thenylidene)thiazolidin-2-ylidene]-2-cyano-N-(2-morpholinoethyl)acetamide] was 21.9 µM.
The value for `Cc1ccc(C(=O)C2C(=O)C(=O)N(Cc3ccco3)C2c2ccc(N(C)C)cc2)o1` (stereo not drawn) [2-[4-(dimethylamino)phenyl]-1-(2-furanylmethyl)-4-hydroxy-3-[(5-methyl-2-furanyl)-oxomethyl]-2H-pyrrol-5-one] was over 300 µM; that for `O=C(O)COc1ccc(C=Cc2nnc(-c3ccccc3O)[nH]2)cc1` [2-[4-[(E)-2-[(5Z)-5-(6-oxo-1-cyclohexa-2,4-dienylidene)-1,2-dihydro-1,2,4-triazol-3-yl]ethenyl]phenoxy]acetic acid] was 0.945 µM.
The compound `COc1ccc(C2CC(=O)C(=CNCCCO)C(=O)C2)cc1` (stereo not drawn) [2-[(3-hydroxypropylamino)methylidene]-5-(4-methoxyphenyl)cyclohexane-1,3-dione] gave an EC50 of 37.9 µM.
Compound `Cc1ccc(NNC2=Nc3ccccc3C2=O)cc1` [2-[(4-methylphenyl)hydrazo]-3-indolone] displayed a half-maximal effective concentration (EC50) of 25.7 µM.
Compound `CC1(C)CC(=O)C2=C(C1)OC(=N)C(C#N)[C@@]21C(=O)N(CC(N)=O)c2ccccc21` (stereo partly drawn) [2-[(4R)-2-amino-3-cyano-2',5-diketo-7,7-dimethyl-spiro[6,8-dihydrochromene-4,3'-indoline]-1'-yl]acetamide] came in with a concentration giving a half-maximal response (EC50) of over 300 µM.
The value for `N#CC1C(=N)OC2=C(C(=O)CCC2)[C@]12C(=O)N(CC(N)=O)c1ccccc12` (stereo partly drawn) [2-[(4R)-2-amino-3-cyano-2',5-diketo-spiro[7,8-dihydro-6H-chromene-4,3'-indoline]-1'-yl]acetamide] was over 300 µM; that for `NC(=O)c1ccccc1N=CCC(=O)c1ccc(F)cc1` [2-[[(E)-3-(4-fluorophenyl)-3-keto-prop-1-enyl]amino]benzamide] was over 300 µM; that for `COc1cccc(CN2C(=O)C3(C4=C(CCCC4=O)OC(=N)C3C#N)c3ccccc32)c1` (stereo not drawn) [2-amino-1'-(3-methoxybenzyl)-2',5-dioxo-1',2',5,6,7,8-hexahydrospiro[chromene-4,3'-indole]-3-carbonitrile] was over 300 µM.
Then `CC1(C)CC(=O)C2=C(C1)OC(=N)C(C#N)C21C(=O)N(CN2CCOCC2)c2ccccc21` (stereo not drawn) [2-amino-2',5-diketo-7,7-dimethyl-1'-(morpholinomethyl)spiro[6,8-dihydrochromene-4,3'-indoline]-3-carbonitrile], with over 300 µM; and `COc1ccc(C2C3=C(CCCC3=O)OC(=N)C2C#N)cc1OC` (stereo not drawn) [2-amino-4-(3,4-dimethoxyphenyl)-5-keto-4,6,7,8-tetrahydrochromene-3-carbonitrile], with over 300 µM.
Then `COc1ccc(C2C3=C(CC(C)(C)CC3=O)OC(=N)C2C#N)cc1OC` (stereo not drawn) [2-amino-4-(3,4-dimethoxyphenyl)-5-keto-7,7-dimethyl-6,8-dihydro-4H-chromene-3-carbonitrile], with over 300 µM; and `N#CC1=C2CCCCC2C(c2cccnc2)C(C#N)(C#N)C1=N` (stereo not drawn) [2-amino-4-(3-pyridinyl)-4a,5,6,7-tetrahydro-4H-naphthalene-1,3,3-tricarbonitrile], with 17.5 µM.
Regarding `COc1ccc(C2C3=C(CC(C)(C)CC3=O)OC(=N)C2C#N)cc1` (stereo not drawn) [2-amino-4-(4-methoxyphenyl)-7,7-dimethyl-5-oxo-6,8-dihydro-4H-1-benzopyran-3-carbonitrile], the concentration for a half-maximal effect (EC50) was over 300 µM.
Then `COc1cc(OC)c(C2C3=C(CC(C)CC3=O)OC(=N)C2C#N)cc1OC` (stereo not drawn) [2-amino-4-asaryl-5-keto-7-methyl-4,6,7,8-tetrahydrochromene-3-carbonitrile], with over 300 µM.
Then `N#CC1C(=N)OC2=C(C(=O)CCC2)C1c1ccccc1` (stereo not drawn) [2-amino-5-keto-4-phenyl-4,6,7,8-tetrahydrochromene-3-carbonitrile], with over 300 µM; and `COc1ccc(C2C3=C(CC(C)(C)CC3=O)OC(=N)C2C#N)c(OC)c1OC` (stereo not drawn) [2-amino-5-keto-7,7-dimethyl-4-(2,3,4-trimethoxyphenyl)-6,8-dihydro-4H-chromene-3-carbonitrile], with over 300 µM.
Turning to `CC1(C)CC(=O)C2=C(C1)OC(=N)C(C#N)C2c1ccccc1` (stereo not drawn) [2-amino-5-keto-7,7-dimethyl-4-phenyl-6,8-dihydro-4H-chromene-3-carbonitrile], the EC50 was over 300 µM.

As usually defined, the EC50 is the concentration needed to bring the measured effect to its halfway point. The low end stands for greater potency, the high end for weaker potency.
